Legend:
Format in all cases: in vivo
[1] = system: broad leaf weeds (Lindernia pyxidaria and Monochoria vaginalis); assay: Test Example 1: herbicidal effect test by treatment of rice paddy soil (immediately after seeding); details: 120 g/10a active ingredient, dry weight vs untreated area, 14 days after treatment; for pest or weed control at 1200 g/ha: 336 h
Method in brief: (§1)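 Applied at 120 g a.i./10 ares as diluted emulsion dropped into flooded (~3 cm) paddy soil pots right after sowing seeds 0–1 cm deep; greenhouse, two replicates. At day 14, dry weight of treated versus untreated plants gives % herbicidal rate.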

Scirpus juncoides [2] = assay: as above; details: 120 g/10a active ingredient, dry weight vs untreated area, 14 days after treatment; for pest or weed control at 1200 g/ha: in Schoenoplectiella juncoides, 336 h, read-out: Herbicidal rate (%) Scirpus juncoides
Method in brief: as §1

Echinochloa crus-galli [3] = assay: as above; details: 120 g/10a active ingredient, dry weight vs untreated area, 14 days after treatment; for pest or weed control at 1200 g/ha: in Echinochloa crus-galli, 336 h, read-out: Herbicidal rate (%) Echinochloa crus-galli
Method in brief: as §1

Amaranthus viridis [4] = assay: Test Example 3: herbicidal effect test by treatment of dry field farming soil (one day after seeding); details: 120 g/10a active ingredient, evaluated 14 days after treatment; for pest or weed control at 1200 g/ha: Amaranthus viridis, 336 h, read-out: herbicidal rate, Amaranthus viridis
Method in brief: (§2)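 Weeds were seeded into the upper soil layer of alluvial field soil and, one day afterwards, the soil surface was sprayed with water-diluted emulsion delivering 120 g active ingredient per 10 ares. Mean plant dry weight relative to untreated pots after 14 days gave the herbicidal rate, tested in duplicate.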

Chenopodium album [5] = assay: as above; details: 120 g/10a active ingredient, evaluated 14 days after treatment; for pest or weed control at 1200 g/ha: Chenopodium album, 336 h, read-out: herbicidal rate, Chenopodium album
Method in brief: as §2

southern crabgrass [6] = assay: as above; details: 120 g/10a active ingredient, evaluated 14 days after treatment; for pest or weed control at 1200 g/ha: Digitaria ciliaris, 336 h, read-out: herbicidal rate, southern crabgrass
Method in brief: as §2

Echinochloa crus-galli [7] = assay: as above; details: 120 g/10a active ingredient, evaluated 14 days after treatment; for pest or weed control at 1200 g/ha: Echinochloa crus-galli, 336 h, read-out: herbicidal rate, Echinochloa crus-galli
Method in brief: as §2

Amaranthus viridis [8] = assay: Test Example 4: herbicidal effect test by treatment of leave and stem in dry field farming (seven days after seeding); details: 120 g/10a active ingredient, emulsion sprayed seven days after seeding, evaluated 14 days after treatment; for pest or weed control at 1200 g/ha: Amaranthus viridis, 336 h, read-out: herbicidal effect (herbicidal rate), Amaranthus viridis
Method in brief: (§3)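 Weeds were seeded at 20 seeds per species into the top 1 cm of alluvial upland soil in pots, then sprayed 7 days after seeding with water-diluted emulsifiable concentrate at 100 L/10 a, giving 120 g active ingredient/10 a. Duplicate pots; herbicidal rate (%) was 14 days post-treatment, from dry weight versus untreated.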

Chenopodium album [9] = assay: as above; details: 120 g/10a active ingredient, emulsion sprayed seven days after seeding, evaluated 14 days after treatment; for pest or weed control at 1200 g/ha: Chenopodium album, 336 h, read-out: herbicidal effect (herbicidal rate), Chenopodium album
Method in brief: as §3

southern crabgrass [10] = assay: as above; details: 120 g/10a active ingredient, emulsion sprayed seven days after seeding, evaluated 14 days after treatment; for pest or weed control at 1200 g/ha: Digitaria ciliaris, 336 h, read-out: herbicidal effect (herbicidal rate), southern crabgrass
Method in brief: as §3

Echinochloa crus-galli [11] = assay: as above; details: 120 g/10a active ingredient, emulsion sprayed seven days after seeding, evaluated 14 days after treatment; for pest or weed control at 1200 g/ha: Echinochloa crus-galli, 336 h, read-out: herbicidal effect (herbicidal rate), Echinochloa crus-galli
Method in brief: as §3

[12] = system: broad leaf weeds (Lindernia pyxidaria and Monochoria vaginalis); assay: Test Example 2: herbicidal effect test by treatment during growing period in paddy rice cultivation (seven days after seeding); details: 120 g/10a active ingredient, assessed 14 days after treatment, dry weight vs untreated area; for pest or weed control at 1200 g/ha: 336 h
Method in brief: (§4)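 Sow 30 seeds per species (0–1 cm) into puddled, fertilized paddy soil; keep flooded ~3 cm in greenhouse. Day 7 after seeding: drop water-diluted emulsion, 120 g a.i./10 ares. Harvest 14 d post-treatment; compare dry weight with untreated pots (duplicate).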

Scirpus juncoides [13] = assay: as above; details: 120 g/10a active ingredient, assessed 14 days after treatment, dry weight vs untreated area; for pest or weed control at 1200 g/ha: Schoenoplectiella juncoides, 336 h, read-out: herbicidal rate (%) Scirpus juncoides
Method in brief: as §4

Echinochloa crus-galli [14] = assay: as above; details: 120 g/10a active ingredient, assessed 14 days after treatment, dry weight vs untreated area; for pest or weed control at 1200 g/ha: Echinochloa crus-galli, 336 h, read-out: herbicidal rate (%) Echinochloa crus-galli
Method in brief: as §4

[15] = Monochoria vaginalis, read-out: Herbicidal rate (%) Monochoria vaginalis
[16] = in Lindernia, Lindernia pyxidaria, read-out: Herbicidal rate (%) Lindernia pyxidaria
[17] = Lindernia pyxidaria, read-out: herbicidal rate (%) Lindernia pyxidaria
[18] = Monochoria vaginalis, read-out: herbicidal rate (%) Monochoria vaginalis

SMILES	pest or weed control at 1200 g/ha [1, 15]	pest or weed control at 1200 g/ha [1, 16]	pest or weed control at 1200 g/ha (Scirpus juncoides [2])	pest or weed control at 1200 g/ha (Echinochloa crus-galli [3])	Herbicidal rate (%) Lindernia pyxidaria ([1]; Lindernia pyxidaria)	Herbicidal rate (%) Monochoria vaginalis ([1]; Monochoria vaginalis)	Herbicidal rate (%) Scirpus juncoides (Scirpus juncoides [2])	Herbicidal rate (%) Echinochloa crus-galli (Echinochloa crus-galli [3])	herbicidal rate, Amaranthus viridis (Amaranthus viridis [4])	herbicidal rate, Chenopodium album (Chenopodium album [5])	herbicidal rate, southern crabgrass (southern crabgrass [6])	herbicidal rate, Echinochloa crus-galli (Echinochloa crus-galli [7])	herbicidal effect (herbicidal rate), Amaranthus viridis (Amaranthus viridis [8])	herbicidal effect (herbicidal rate), Chenopodium album (Chenopodium album [9])	herbicidal effect (herbicidal rate), southern crabgrass (southern crabgrass [10])	herbicidal effect (herbicidal rate), Echinochloa crus-galli (Echinochloa crus-galli [11])	Herbicidal rate (%) Lindernia pyxidaria ([12]; Lindernia pyxidaria)	Herbicidal rate (%) Monochoria vaginalis ([12]; Monochoria vaginalis)	Herbicidal rate (%) Scirpus juncoides (Scirpus juncoides [13])	Herbicidal rate (%) Echinochloa crus-galli (Echinochloa crus-galli [14])	further results
Cc1c(Cc2ccccc2N(S(=O)(=O)C(F)(F)F)S(=O)(=O)C(F)(F)F)c(=O)on1C(C)(C)C [Compound 1-963, N-[2-[(2-tert-butyl-3-methyl-5-oxo-isoxazol-4-yl)methyl]phenyl]-1,1,1-trifluoro-N-(trifluoromethylsulfonyl)methanesulfonamide]	90%	90%	90%	90%	–	–	–	–	–	–	–	–	–	–	–	–	–	–	–	–	pest or weed control at 1200 g/ha (Amaranthus viridis [4]): 90%; pest or weed control at 1200 g/ha (Chenopodium album [5]): 90%; pest or weed control at 1200 g/ha (southern crabgrass [6]): 90%; pest or weed control at 1200 g/ha (Echinochloa crus-galli [7]): 90%; pest or weed control at 1200 g/ha (Amaranthus viridis [8]): 40%; pest or weed control at 1200 g/ha (Chenopodium album [9]): 40%; pest or weed control at 1200 g/ha (southern crabgrass [10]): 90%; pest or weed control at 1200 g/ha (Echinochloa crus-galli [11]): 90%; pest or weed control at 1200 g/ha [12, 17]: 90%; pest or weed control at 1200 g/ha [12, 18]: 90%; pest or weed control at 1200 g/ha (Scirpus juncoides [13]): 90%; pest or weed control at 1200 g/ha (Echinochloa crus-galli [14]): 90%
CCC(C)n1oc(=O)c(Cc2ccccc2N(S(=O)(=O)C(F)(F)F)S(=O)(=O)C(F)(F)F)c1C (stereo not drawn) [Compound 1-964, 1,1,1-trifluoro-N-[2-[(3-methyl-5-oxo-2-sec-butyl-isoxazol-4-yl)methyl]phenyl]-N-(trifluoromethylsulfonyl)methanesulfonamide]	100%	100%	90%	90%	–	–	–	–	–	–	–	–	–	–	–	–	–	–	–	–	pest or weed control at 1200 g/ha (Amaranthus viridis [4]): 90%; pest or weed control at 1200 g/ha (Chenopodium album [5]): 90%; pest or weed control at 1200 g/ha (southern crabgrass [6]): 90%; pest or weed control at 1200 g/ha (Echinochloa crus-galli [7]): 90%; pest or weed control at 1200 g/ha (Amaranthus viridis [8]): 40%; pest or weed control at 1200 g/ha (Chenopodium album [9]): 0%; pest or weed control at 1200 g/ha (southern crabgrass [10]): 60%; pest or weed control at 1200 g/ha (Echinochloa crus-galli [11]): 90%; pest or weed control at 1200 g/ha [12, 17]: 90%; pest or weed control at 1200 g/ha [12, 18]: 90%; pest or weed control at 1200 g/ha (Scirpus juncoides [13]): 90%; pest or weed control at 1200 g/ha (Echinochloa crus-galli [14]): 90%
CCC(CC)n1oc(=O)c(Cc2ccccc2N(S(=O)(=O)C(F)(F)F)S(=O)(=O)C(F)(F)F)c1C [Compound 1-965]	–	–	–	–	80%	100%	80%	100%	100%	100%	100%	100%	90%	40%	90%	90%	50%	80%	80%	100%	–
Cc1c(Cc2ccccc2N(S(=O)(=O)C(F)(F)F)S(=O)(=O)C(F)(F)F)c(=O)on1CC(C)(C)C [Compound 1-968]	–	–	–	–	90%	90%	90%	90%	90%	90%	90%	90%	40%	40%	90%	90%	90%	90%	90%	90%	–
CCCC(C)n1oc(=O)c(Cc2ccccc2N(S(=O)(=O)C(F)(F)F)S(=O)(=O)C(F)(F)F)c1C (stereo not drawn) [Compound 1-970]	–	–	–	–	100%	100%	100%	100%	60%	40%	90%	90%	60%	40%	70%	90%	70%	90%	90%	100%	–
CCCC(CC)n1oc(=O)c(Cc2ccccc2N(S(=O)(=O)C(F)(F)F)S(=O)(=O)C(F)(F)F)c1C (stereo not drawn) [Compound 1-971]	–	–	–	–	100%	100%	100%	100%	80%	60%	80%	90%	40%	50%	90%	90%	80%	90%	90%	100%	–

Reference: patent US11109593B2, “Isoxazolin-5-one derivative and herbicide containing same as active ingredient” (HOKKO CHEMICAL INDUSTRY CO., LTD., priority 2017, dated 2021)
